Source: the supplement of paper PMC11451515

Assays:
Details in all cases: 48 h
[1] = tested on: NOMO1; test: AUC of viability dose-response curve (% viability x log10 dose units); higher = less sensitive
Procedure, shortened: (§1)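 Library compounds in DMSO were applied for 48 h at 37°C at 11 threefold doses (47 μM to 0.79 nM) to medium-adapted leukemia cells in 1536-well plates holding 500 or 1000 cells/well. Luminescence from CellTiter-Glo One was normalised plate by plate against DMSO and cell-free wells. Area under the curve came from trapezoidal integration of a log-logistic fit, after scaling curves that rose above full viability and discarding those that failed quality control. The fit had four parameters and used log10 doses.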

[2] = tested on: SEM cells; test: as above
Procedure, shortened: as §1

[3] = tested on: P12-Ichikawa; test: as above
Procedure, shortened: as §1

[4] = tested on: NOMO1; test: cell viability relative to DMSO control; higher = less cytotoxic
Procedure, shortened: (§2)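 NOMO1 or SEM cells were plated at 500 cells/well and P12-Ichikawa cells at 1000 cells/well in 1536-well plates (5 μl), after each leukemia line had been adapted for at least four passages in each medium. Pin dosing delivered library compounds in DMSO at 11 threefold concentrations, 47 μM to 0.79 nM. CellTiter-Glo One luminescence was read after 48 h at 37°C. Viability is reported as a per-plate percentage of DMSO wells, with cell-free wells as background.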

[5] = tested on: SEM cells; test: as above
Procedure, shortened: as §2

[6] = tested on: P12-Ichikawa; test: as above
Procedure, shortened: as §2

CCC1=C[C@@H]2CN(C1)Cc1c([nH]c3ccccc13)[C@@](C(=O)OC)(c1cc3c(cc1OC)N(C)[C@H]1[C@@](O)(C(=O)OC)[C@H](OC(C)=O)[C@]4(CC)C=CCN5CC[C@]31[C@@H]54)C2
AUC of viability dose-response curve
Details | [1] | [2] | [3]
HPLM + 10% dialyzed FBS | 256 | 244 | 202
RPMI 5 mM glucose + 10% FBS | 259 | 187 | 182
RPMI 5 mM glucose + 10% dialyzed FBS | 260 | 241 | 238

cell viability [%]
Details | [4] | [5] | [6]
HPLM + 10% dialyzed FBS, 0.000781 µM | 127 | 119 | 106
HPLM + 10% dialyzed FBS, 0.00234 µM | 119 | 117 | 110
HPLM + 10% dialyzed FBS, 0.00702 µM | 108 | 110 | 94.4
HPLM + 10% dialyzed FBS, 0.0211 µM | 96.9 | 92.7 | 85.4
HPLM + 10% dialyzed FBS, 0.0632 µM | 49.3 | 75.9 | 36.2
HPLM + 10% dialyzed FBS, 0.19 µM | 34.5 | 32 | 15.4
HPLM + 10% dialyzed FBS, 0.569 µM | 38 | 25.5 | 15.9
HPLM + 10% dialyzed FBS, 1.71 µM | 34.5 | 24.1 | 12.6
HPLM + 10% dialyzed FBS, 5.12 µM | 38.4 | 23.6 | 12.8
HPLM + 10% dialyzed FBS, 15.4 µM | 47 | 26.7 | 8.96
HPLM + 10% dialyzed FBS, 46.1 µM | 27.4 | 17.3 | 7.62
RPMI 5 mM glucose + 10% FBS, 0.000781 µM | 106 | – | 108
RPMI 5 mM glucose + 10% FBS, 0.00234 µM | 98.3 | – | 108
RPMI 5 mM glucose + 10% FBS, 0.00702 µM | 98.9 | – | 96.6
RPMI 5 mM glucose + 10% FBS, 0.0211 µM | 99.3 | – | 59.8
RPMI 5 mM glucose + 10% FBS, 0.0632 µM | 70.5 | – | 29.6
RPMI 5 mM glucose + 10% FBS, 0.19 µM | 20.6 | – | 16.2
RPMI 5 mM glucose + 10% FBS, 0.569 µM | 21.1 | – | 18.3
RPMI 5 mM glucose + 10% FBS, 1.71 µM | 23.4 | – | 16.5
RPMI 5 mM glucose + 10% FBS, 5.12 µM | 22.4 | – | 11
RPMI 5 mM glucose + 10% FBS, 15.4 µM | 29.2 | – | 9.49
RPMI 5 mM glucose + 10% FBS, 46.1 µM | 18.9 | – | 7.18
RPMI 5 mM glucose + 10% dialyzed FBS, 0.000781 µM | 120 | 108 | 110
RPMI 5 mM glucose + 10% dialyzed FBS, 0.00234 µM | 114 | 106 | 100
RPMI 5 mM glucose + 10% dialyzed FBS, 0.00702 µM | 114 | 99.7 | 99.7
RPMI 5 mM glucose + 10% dialyzed FBS, 0.0211 µM | 107 | 86.5 | 89.4
RPMI 5 mM glucose + 10% dialyzed FBS, 0.0632 µM | 86.5 | 62.9 | 59.2
RPMI 5 mM glucose + 10% dialyzed FBS, 0.19 µM | 18.8 | 30 | 21.7
RPMI 5 mM glucose + 10% dialyzed FBS, 0.569 µM | 25.7 | 23.9 | 29.3
RPMI 5 mM glucose + 10% dialyzed FBS, 1.71 µM | 26.5 | 22 | 25.4
RPMI 5 mM glucose + 10% dialyzed FBS, 5.12 µM | 29 | 24.9 | 22.4
RPMI 5 mM glucose + 10% dialyzed FBS, 15.4 µM | 27.8 | 26.3 | 13.9
RPMI 5 mM glucose + 10% dialyzed FBS, 46.1 µM | 20.5 | 12.4 | 10.6
